Results taken from patent US10357537B2, “Cyclotides as immunosuppressive agents” (priority 2011, dated 2019).
Bridge positions count the residues as written; N and C are the ends. Peptide text beside a SMILES is read from it.

What was measured:
[1] = system: IL-2 mRNA in PHA-L-activated cells; test: IL-2 gene expression, real-time PCR; assay type: cell-based, human; conditions: 4 hours, vs control
Experimental: C. IL-2 gene expression analysis using RT-PCR. […] RT-PCR was carried out using specific primers for indicated gene. The data were normalized to the Ct value of the internal housekeeping gene 18s rRNA and the relative mRNA level in the untreated stimulated group was used as calibrator. Data were expressed as mean+SD of three independent experiments.
Total RNA was extracted from controls or treated cells (2×10^6) frozen at −80° C. RNA-purification was performed according to the manufacturer's instructions for the RNeasy mini and Rnase-Free Dnase Set digestion kits (Qiagen, Hilden, Germany). The quantity and purity of extracted RNA was measured by spectrophotometry (Nanodrop, Peqlab, Erlangen, Germany) and purified RNA was reverse transcribed using the RT^2 First Stand Kit (Qiagen, Hilden, Germany).
RT-PCR reactions were carried out on a BioRad MyiQ (BioRad, Munich, Germany) in a final volume of 25 μL using RT^2 qPCR Primer Assay (for IL-2) and SYBR® Green qPCR Mastermix (both from Qiagen, Hilden, Germany). […] Results were expressed as relative gene expression of IL-2 and were determined by comparative Ct method. […]
To determine whether cyclotides have an impact at the gene expression level of the, il-2 gene expression (as control we used 18s rRNA) in PBMC cells was investigated by quantitative real-time PCR (FIG. 12C).

[2] = system: TNF-alpha production of activated PBMCs; test: TNF-alpha secretion of PBMC, ELISA-based FACS; assay type: cell-based, human; conditions: 24 h + 6 h PMA/ionomycin; T20K 4 μM, CsA 5 μg/mL
Experimental: FIG. 15. […] Untreated cells were used as control. Following 24 h or 36 h of cultivation, the cells were restimulated with PMA/Ionomycin for further 6 hour. […] The data are presented as mean and standard deviation (SD) of three independent experiments.
Activated cells were resuspended in 50 μl of medium, transferred into a 96-well plate and treated with 10 μg/ml PHA-L. After incubation for 24 h cells were re-stimulated with PMA (50 ng/ml) und ionomycin (500 ng/ml) for 6 h. Next, the cells were transferred into Eppendorf tubes, centrifuged (5 min, 3000 RPM, 20° C.) und 50 μl of the supernatant was again transferred into new tubes and stored at −20° C. Production of cytokines was measured and quantified using the FlowCytomix™ kit according to manufacturer's instructions.
Therefore it is of interest to determine whether cyclotides only have anti-proliferative effects or also affect the effector function of T-lymphocytes, which would directly relate to changes in the IFN-gamma and TNF-alpha production. Therefore, the production of both cytokines of cyclotide-treated, activated PBMCs at an early time point after PBMC activation was tested.

[3] = system: spleenocytes restimulated with MOG35-55; test: Cytokine release of spleenocytes from treated EAE mice, ELISA; assay type: cell-based, mouse
Experimental: FIG. 21. Effect on cytokine release of ex vivo isolated PBMC at day 3. Spleenocytes of sacrificed mice were isolated and restimulated with MOG35-55 (30 μg/mL) for three days or left untreated. Supernatants of these cells were used for analyzing cytokine release in ELISAs. In (A) interleukin 2 release was highest in splenic T-cells isolated from naïve mouse group that were restimulated with MOG, correlating with disease course. […] There was hardly any cytokine IL4 detectable (E), opposing a TH2 immune response, which was expected.
Spleens of sacrificed mice were taken and transferred into a 6 cm Petri Dish with 5 mL sterile PBS. To receive a spleenocyte suspension, spleens were meshed and filtered through 70 μm nylon sieve. Cells were centrifuged at 1200 rpm for 5 minutes and resuspended in RPMI 1640 media supplemented with 10% fetal calf serum (FCS), 2 mM L-glutamine, penicillin (100 U/mL), and streptomycin (100 μg/mL). Spleenocytes were cultivated at a concentration of 3×10^6/mL in a 48-well flat-bottom plate (500 μL/well). Cells were stimulated with 30 μg/mL MOG35-55 or left untreated and incubated at 37° C. for three days. Supernatants and cells were taken stored at −20° C. until further experiments. […] After 12 hours MOG or T20K was added to appropriate wells. Supernatants were stored after 24 hours and after 48 hours at −20° C.
Supernatants of stimulated spleenocytes were analyzed for their IL2, IL17, INFγ, IL4 and IL22 cytokine release using anti-mouse antibodies for ELISA from eBioscience according to the manufacturer's instructions. The color reaction was evaluated at an optical density of 450 nm by the microplate reader Synergy H4 (BioTek).

[4] = system: activated human primary PBMC; test: Anti-proliferative CFSE cell division assay on anti-CD3/CD28-activated PBMC; conditions: CFSE, flow cytometry; extract 50-100 μg/mL, cyclotides 1.8-14 μM, melittin 0.05-1.6 μM
Procedure, shortened: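 Healthy-donor PBMC were CFSE-labelled (5 μM, 10 min, 37° C.), activated with anti-CD3/CD28 and cultured in RPMI 1640 with 10% FCS at 37° C. with the cyclotide mutants/variants. Proliferation was read as cell division by flow-cytometric CFSE histogram analysis.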

CC(C)C[C@@H]1NC(=O)CNC(=O)[C@H](CC(N)=O)NC(=O)[C@H](CCCNC(=N)N)NC(=O)[C@H]([C@@H](C)O)NC(=O)[C@@H]2CSSC[C@@H]3NC(=O)[C@H]([C@@H](C)O)NC(=O)CNC(=O)CNC(=O)[C@H](C(C)C)NC(=O)[C@@H]4CSSC[C@H](NC(=O)[C@H](CCCCN)NC(=O)[C@H](CSSC[C@H](NC(=O)[C@H](C(C)C)NC(=O)[C@@H]5CCCN5C1=O)C(=O)NCC(=O)N[C@@H](CCC(=O)O)C(=O)N[C@@H]([C@@H](C)O)C(=O)N4)NC(=O)CNC(=O)[C@@H]1CCCN1C(=O)[C@H]([C@@H](C)O)NC(=O)[C@H](CC(N)=O)NC3=O)C(=O)N[C@@H](CO)C(=O)N[C@@H](Cc1c[nH]c3ccccc13)C(=O)N1CCC[C@H]1C(=O)N[C@@H](C(C)C)C(=O)N2 [Kalata T20K] (cyclo(CGETCVGGTCNTPGCKCSWPVCTRNGLPV); disulfide 1-15, 5-17, 10-22 (inferred); ring closure inferred)
level of IL-2 mRNA [1]: clearly decreases the level of IL-2 mRNA | TNF-alpha expression as compared to the control, 24 h [2]: 23%±10.6 | IL2 release of spleenocytes from mice treated at day 7 ([3]; T20K (7), after MOG stimulation, vs naive group): IL2 release was lower than in naïve group | IL17, IL22 and INFγ release of spleenocytes from pre-treated mice ([3]; T20K (-7, 0)): inhibitory effect could also be demonstrated towards the cytokines IL17, IL22 and INFγ in T-cells of T20K (−7, 0) treated mice, although not significantly | IL2 production of spleenocytes from pre-treated mice ([3]; T20K day -7 or 0, MOG35-55 30 μg/mL, three days): significant inhibition of the IL2 production | cell division / proliferation of activated PBMC (in words) [4]: show anti-proliferative capacity
